Reference: US9169241B2, “Quinolinyloxyphenylsulfonamides” (Max-Planck-Gesellschaft Zur Forderung der Wissenschaften …, priority 2009, dated 2015)
pIC50: −log10 of the molar value. Read-outs that look alike come from different tables or passages of the source.

Experiments:
[1] = test system: indicated cell line; test: Wound healing migration assay (Table IV); type: cell-based; conditions: compounds at 12.5, 6.25, 3.125 μM, 48 h-72 h
Description: This method mimics cell migration during wound healing in vivo. The basic steps involve creating a “wound” in a cell monolayer, capturing the images at the beginning and at regular intervals during cell migration to close the wound, and comparing the images to quantify the migration rate of the cells. In detail, 150000 cell/24 well have been seeded and allowed to form a monolayer overnight. Subsequently a “wound” or “scratch” has been performed with a 1000 μl pipette tip. The STDV of wound size is normally below 10% at time point t0. The assay was stopped by fixation with 0.05% Crystal violet/20% methanol when control scratches were closed. The assay was terminated between 48 h and 72 h depending on the migration potential of the indicated cell line. The “wounds” were visualized with a Zeiss Axiovert S100 microscope (Carl Zeiss UK, Welwyn Garden City, UK). The tested compounds were used at 12.5 μM, 6.25, 3.125 μM and DMSO control. IC50 values have been calculated as 50% wound size in between t0 and t48 or t72.

[2] = test system: cells; test: Boyden chamber migration assay (Table VI); type: cell-based; conditions: Homo sapiens, Hs-578T, 16 h, Hs578T cells; 16 h migration
Description: The Boyden chamber assay is based on a chamber of two medium-filled compartments separated by a microporous membrane of 8 μM (Cell culture insert 8.0 μM pore size, BD Biosciences, Bedford, Mass.). The boyden chamber migration assays were carried out according to the supplier's instructions. In general, 20000 cells are placed in the upper compartment with medium containing 0% FCS plus 0.1% BSA and are allowed to migrate 16 h through the pores of the membrane into the lower compartment, which is filled with cell culture medium containing 10% FCS as chemotactic agents. The cells remaining in the insert were removed with a cotton swab, and the cells on the bottom of the filter were fixed and counted. (Zhang Y X, et al. AXL is a potential target for therapeutic intervention in breast cancer progression. Cancer Res. 2008; 68:1905-15).

[3] = test system: C8161; test: Apoptosis assay (Cellomics, nucleus condensation); type: cell-based; conditions: Homo sapiens, Table III, read-out: Apoptosis induction in C8161
Description: (§1) The Cellomics BioApplication (Thermo Fischer Cellomics Products, Pittsburgh, Pa.) is an automated image analysis algorithm that provides detailed analysis of phenotypes related to apoptosis. As one of the most prominent characteristics of apoptotics cell a nucleus condensation takes place. This can be measured fluorescence signal intensity using a CCD camera on fully automated microscope system. The Cellomics system is able to quantify the fluorescence intensity per single nucleus and calculates the variation of signal intensity in each cell population. […] Additionally the number of detected cell decreases normally in apoptotic cell populations. In detail 5000 cell per 96 well were labeled with DNA intercalating dye (Hoechst 33342, Sigma, Steinheim, Germany) to visualize the nucleus in a fluorescence microscope under live conditions. The apoptosis assay was performed 24 h and 48 h after addition of compound at concentrations 12.5 μM, 6.25 μM, 3.125 μM, 1.56 μM, 0.78 μM, 0.39 μM as well as DMSO control for 48 h.

[4] = test system: U118; test: Apoptosis assay (Cellomics, nucleus condensation); type: cell-based; conditions: Table III, read-out: Apoptosis induction in U118
Description: as §1

[5] = test system: U138; test: Apoptosis assay (Cellomics, nucleus condensation); type: cell-based; conditions: Table III, read-out: Apoptosis induction in U138
Description: as §1

[6] = test system: SF126; test: Apoptosis assay (Cellomics, nucleus condensation); type: cell-based; conditions: Homo sapiens, SF-126, Table III, read-out: Apoptosis induction in SF126
Description: as §1

[7] = test system: SF763; test: Apoptosis assay (Cellomics, nucleus condensation); type: cell-based; conditions: Table III, read-out: Apoptosis induction in SF763
Description: as §1

[8] = test system: Hs578T; test: Apoptosis assay (Cellomics, nucleus condensation); type: cell-based; conditions: Homo sapiens, Hs-578T, Table III, read-out: Apoptosis induction in Hs578T
Description: as §1

[9] = test system: Hs578T; test: Matrigel outgrowth assay/branching assay; type: cell-based; conditions: Homo sapiens, Hs-578T; HS578T cell line; Table Ib; read-out: Total branching inhibition in Matrigel HS578T
In short: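 Invasive outgrowth into a 3 mg/ml Matrigel gel is judged from images taken after 48, 72 and 96 h of exposure to 3.125, 1.56 or 0.78 μM compound, with DMSO as control. Positive means total inhibition of branching.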

[10] = test system: tumor cell; test: Matrigel outgrowth assay/branching assay (Table Va); type: cell-based
Description: The Matrigel outgrowth assay is based on the ability of tumor cell to penetrate a solid gel of extracellular matrix proteins mimicking the metastasis formation in vivo. While cells with low invasive potential appear as roundish cell or cell cluster, cells with high invasive potential penetrate the Matrigel and form polymorphic structures. In detail 65 μl of Matrigel matrix (Matrigel™ Matrix, BD Biosciences, Bedford, Mass., USA) with a concentration of 3 mg/ml have been polymerized in 96 well plates for 1 h at 37° C. Subsequently 5000 cell/well were seeded into each well containing cell culture medium and indicated compound with concentrations of 3.125 μM, 1.56 μM and 0.78 μM as well as DMSO control. After 48 h, 72 h and 96 h images of cell were taken on an inverted microscope using a 5× objective (Zeiss Axiovert S100 microscope Carl Zeiss UK, Welwyn Garden City, UK). Only compound concentrations were total branching inhibition was evident were accounted as positive. Method was used as previously described, with some modifications (Thompson E W, et al. Association of increased basement membrane invasiveness with absence of estrogen receptor and expression of vimentin in human breast cancer cell lines. J Cell Physiol 1992; 150:534-44).

[11] = test system: viable cells in culture; test: Cell viability assay at 10 μM (CellTiter-Glo, Table VII); type: cell-based; conditions: compound 10 μM, 72 h;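 note: graded A 0-20%; B 21-40%; C 41-60%; D over 60% viable cells relative to DMSO control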
In short: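 Cells were seeded at 1000 cells/well in 96-well plates in 100 μl culture medium and incubated for 72 h with 10 μM compound or a DMSO control. ATP content, which reflects metabolically active and therefore viable cells, was then determined by CellTiter-Glo luminescence (Promega) per the manufacturer's instructions and expressed relative to the DMSO control.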

[12] = Homo sapiens, C8161 cells, read-out: IC50 Wound healing Assay C8161
[13] = SF763 cells, read-out: IC50 Wound healing Assay SF763
[14] = Homo sapiens, C8161 cells, read-out: Total branching inhibition in Matrigel C8161
[15] = Homo sapiens, Hs-578T, Hs578T cells, read-out: Total branching inhibition in Matrigel Hs578T
[16] = U118 cells, read-out: Total branching inhibition in Matrigel U118
[17] = U138 cells, read-out: Total branching inhibition in Matrigel U138
[18] = Homo sapiens, HCT-116, HCT116 def, read-out: percentage (%) of viable cells HCT 116def
[19] = Homo sapiens, HCT-116, HCT116 wt, read-out: percentage (%) of viable cells HCT 116wt
[20] = Homo sapiens, HT-29, HT29, read-out: percentage (%) of viable cells HT29
[21] = Homo sapiens, NCI-H358, H358, read-out: percentage (%) of viable cells H358
[22] = Homo sapiens, NCI-H1650, H1650, read-out: percentage (%) of viable cells H1650
[23] = Homo sapiens, NCI-H1666, H1666, read-out: percentage (%) of viable cells H1666
[24] = Homo sapiens, NCI-H1975, H1975, read-out: percentage (%) of viable cells H1975
[25] = Homo sapiens, NCI-H1993, H1993, read-out: percentage (%) of viable cells H1993
[26] = Homo sapiens, A549, read-out: percentage (%) of viable cells A549
[27] = Homo sapiens, HCC827, read-out: percentage (%) of viable cells HCC827
[28] = Homo sapiens, SW480, read-out: percentage (%) of viable cells SW480
[29] = RKO, read-out: percentage (%) of viable cells RKO

COc1cc(S(=O)(=O)Nc2ccc(Oc3ccnc4cc(OCCCN5CCN(C)CC5)c(OC)cc34)c(F)c2)ccc1F [Example 18, 4-Fluoro-N-(3-fluoro-4-{6-methoxy-7-[3-(4-methyl-piperazin-1-yl)-propoxy]-quinolin-4-yloxy}-phenyl)-3-methoxy-benzenesulfonamide]
pIC50 [1, 12]: ≥ 4.90
pIC50 [1, 13]: 4.30 to 4.90
pIC50 [2]: ≥ 5.30
pIC50 [3]: ≥ 4.90
pIC50 [4]: ≥ 4.90
pIC50 [5]: ≥ 4.90
pIC50 [6]: ≥ 4.90
pIC50 [7]: ≥ 4.90
pIC50 [8]: ≥ 4.90
pIC50 [9]: ≥ 5.00
melting point: 167 to 169 °C
pIC50 [10, 14]: ≥ 5.30
pIC50 [10, 15]: ≥ 5.30
pIC50 [10, 16]: ≥ 5.30
pIC50 [10, 17]: ≥ 5.30
viability at 10 µM [11, 18]: 0 to 20%
viability at 10 µM [11, 19]: 0 to 20%
viability at 10 µM [11, 20]: 0 to 20%
viability at 10 µM [11, 21]: 0 to 20%
viability at 10 µM [11, 22]: 21 to 40%
viability at 10 µM [11, 23]: 21 to 40%
viability at 10 µM [11, 24]: 0 to 20%
viability at 10 µM [11, 25]: 0 to 20%
viability at 10 µM [11, 26]: 21 to 40%
viability at 10 µM [11, 27]: 21 to 40%
viability at 10 µM [11, 28]: 0 to 20%
viability at 10 µM [11, 29]: 0 to 20%

COc1cc2c(Oc3ccc(NS(=O)(=O)c4ccccc4F)cc3F)ccnc2cc1OCCCN1CCN(C)CC1 [Example 26, 2-Fluoro-N-(3-fluoro-4-{6-methoxy-7-[3-(4-methyl-piperazin-1-yl)-propoxy]-quinolin-4-yloxy}-phenyl)-benzenesulfonamide]
pIC50 [1, 12]: 4.30 to 4.90
pIC50 [1, 13]: ≥ 4.90
pIC50 [2]: ≥ 5.30
pIC50 [3]: ≥ 4.90
pIC50 [4]: 4.30 to 4.90
pIC50 [5]: ≥ 4.90
pIC50 [6]: 4.30 to 4.90
pIC50 [7]: ≥ 4.90
pIC50 [8]: ≥ 4.90
pIC50 [9]: ≥ 5.00
melting point: 185 to 186 °C
pIC50 [10, 14]: ≥ 5.30
pIC50 [10, 15]: ≥ 5.30
pIC50 [10, 16]: ≥ 5.30
pIC50 [10, 17]: 4.30 to 5.30

COc1cc2c(Oc3ccc(NS(=O)(=O)c4ccc(Cl)cc4F)cc3F)ccnc2cc1OCCCN1CCN(C)CC1 [Example 27, 4-Chloro-2-fluoro-N-(3-fluoro-4-{6-methoxy-7-[3-(4-methyl-piperazin-1-yl)-propoxy]-quinolin-4-yloxy}-phenyl)-benzenesulfonamide]
pIC50 [1, 12]: 4.30 to 4.90
pIC50 [1, 13]: ≥ 4.90
pIC50 [2]: ≥ 5.30
pIC50 [3]: ≥ 4.90
pIC50 [4]: ≥ 4.90
pIC50 [5]: ≥ 4.90
pIC50 [6]: 4.30 to 4.90
pIC50 [7]: ≥ 4.90
pIC50 [8]: ≥ 4.90
pIC50 [9]: ≥ 5.00
melting point: 106 to 110 °C
pIC50 [10, 14]: ≥ 5.30
pIC50 [10, 15]: ≥ 5.30
pIC50 [10, 16]: ≥ 5.30
pIC50 [10, 17]: ≥ 5.30
viability at 10 µM [11, 18]: 0 to 20%
viability at 10 µM [11, 19]: 0 to 20%
viability at 10 µM [11, 20]: 21 to 40%
viability at 10 µM [11, 21]: 0 to 20%
viability at 10 µM [11, 22]: 41 to 60%
viability at 10 µM [11, 23]: 41 to 60%
viability at 10 µM [11, 24]: 21 to 40%
viability at 10 µM [11, 25]: 0 to 20%
viability at 10 µM [11, 26]: > 60%
viability at 10 µM [11, 27]: > 60%
viability at 10 µM [11, 28]: 0 to 20%
viability at 10 µM [11, 29]: 0 to 20%

COc1cc2c(Oc3ccc(NS(=O)(=O)c4ccccc4C)cc3F)ccnc2cc1OCCCN1CCN(C)CC1 [Example 28, N-(3-Fluoro-4-{6-methoxy-7-[3-(4-methyl-piperazin-1-yl)-propoxy]-quinolin-4-yloxy}-phenyl)-2-methyl-benzenesulfonamide]
pIC50 [1, 12]: ≥ 4.90
pIC50 [1, 13]: ≥ 4.90
pIC50 [2]: ≥ 5.30
pIC50 [3]: ≥ 4.90
pIC50 [4]: ≥ 4.90
pIC50 [5]: ≥ 4.90
pIC50 [6]: ≥ 4.90
pIC50 [7]: ≥ 4.90
pIC50 [8]: ≥ 4.90
pIC50 [9]: 4.60 to 5.00
melting point: 73 to 75 °C
pIC50 [10, 14]: ≥ 5.30
pIC50 [10, 15]: 4.30 to 5.30
pIC50 [10, 16]: ≥ 5.30
pIC50 [10, 17]: ≥ 5.30
viability at 10 µM [11, 18]: 21 to 40%
viability at 10 µM [11, 19]: 21 to 40%
viability at 10 µM [11, 20]: 21 to 40%
viability at 10 µM [11, 21]: 0 to 20%
viability at 10 µM [11, 22]: 21 to 40%
viability at 10 µM [11, 23]: 41 to 60%
viability at 10 µM [11, 24]: 21 to 40%
viability at 10 µM [11, 25]: 21 to 40%
viability at 10 µM [11, 26]: 21 to 40%
viability at 10 µM [11, 27]: 21 to 40%
viability at 10 µM [11, 28]: 0 to 20%
viability at 10 µM [11, 29]: 0 to 20%
